Test results: article PMC9646673, “A Novel, Orally Bioavailable, Small-Molecule Inhibitor of PCSK9 With Significant Cholesterol-Lowering Properties In Vivo” (Journal of Lipid Research, 2022)

Assays:
[1] = test system: APOE∗3-Leiden.CETP mice; experiment: Fecal bile acid and neutral sterol content, cholesterol balance
Procedure: In a subsequent efficacy study, mice were treated identically to the first study with the following modifications. Mice in group 1 received vehicle solution (5% DMSO, 5% Solutol HS15, and 90% saline) twice daily by oral gavage. […] The study ran for a total of 35 days with blood and tissue collection and analysis performed as described below.
Analyses of fecal neutral sterol and bile acid contents were performed by gas chromatographic analysis as previously detailed ([37], [38]). Per treatment group, two cages of four mice per cage were used, with feces collected twice per cage during the last week of the study. The net cholesterol uptake, or cholesterol balance, was defined as the dietary cholesterol intake (food intake measured weekly) minus the summed fecal output of neutral sterols and bile acids.

[2] = test system: hepatic LDLR protein; experiment: Second efficacy study: hepatic LDLR protein (Western blotting); assay type: in vivo, mouse; details: day 35; NYX-PCSK9i 50 mg/kg BID PO, atorvastatin […]
[3] = test system: hepatic LDLR protein; experiment: First efficacy study: hepatic LDLR protein (Western blotting); assay type: in vivo, mouse; details: day 28
Text: (§1) Animal experiments were approved by the governmental central committee on animal experiments (AVD5010020172064) and TNO’s animal welfare body (TNO-471 and TNO-482). Female APOE∗3-Leiden.CETP transgenic mice (11–16 weeks of age) were bred at the animal facility of TNO-InnoSer (Leiden, The Netherlands). Female animals were used in this study as they are more responsive to dietary cholesterol and fat than males and therefore typically develop atherosclerosis more rapidly than male APOE∗3-Leiden and APOE∗3-Leiden.CETP mice on cholesterol-containing diets ([33], [34]). […] Body weight, food intake, and clinical signs of behavior were monitored throughout the studies. […]
(§2) Treatment times were around 8:00 am and 4:00 pm each day. Throughout the in-life phase of the study, body weight and food intake (per cage) were measured at regular predetermined intervals while blood samples were collected every 7 days. […] Throughout the study, plasma cholesterol, triglycerides, HDL-C, lipoprotein profiles, PCSK9 expression levels, aspartate transaminase levels (AST), and alanine transaminase levels (ALT) were measured as described below.
The transcript levels of select genes in the liver tissue of mice treated with either vehicle or NYX-PCSK9i were analyzed. […] Differential transcriptional activity was calculated using the 2^–ΔΔCt method.

[4] = test system: plasma PCSK9 protein levels; experiment: First efficacy study: plasma total PCSK9 (ELISA); assay type: in vivo, mouse; details: 50 mg/kg BID PO, day 28
Text: as §1, §2
In both studies, blood samples were collected at weekly intervals via tail vein sampling after fasting the mice for 4 h. […] Total plasma cholesterol levels were determined using a Cholesterol CHOD-PAP kit according to the manufacturer’s instructions. […]

[5] = test system: plasma PCSK9 protein levels; experiment: Second efficacy study: plasma total PCSK9 (ELISA); assay type: in vivo, mouse; details: 50 mg/kg BID PO, from day 7, sustained for the remaining 4 weeks
Text: as §1
In both studies, blood samples were collected at weekly intervals via tail vein sampling after fasting the mice for 4 h. […] Total plasma cholesterol levels were determined using a Cholesterol CHOD-PAP kit according to the manufacturer’s instructions. Plasma HDL-C levels were determined by first precipitating apoB-containing lipids using PEG 6000/glycine and then utilizing the Cholesterol CHOD-PAP kit ([35]). Non-HDL-C levels were determined by subtracting HDL-C levels from total cholesterol levels ([32]). Group-pooled lipoprotein profiles were determined by FPLC analysis using an AKTApurifier 10 FPLC system (GE Healthcare, Chicago, IL). […]

[6] = test system: APOE∗3-Leiden.CETP mice; experiment: First efficacy study: body weight, food intake, plasma AST and ALT; assay type: in vivo, mouse; parameters: Body weight (mean ± SD) / Food intake (mean ± SD): unit not given here; details: for Plasma ALT / Plasma AST: group-pooled
Text: (§3) Animal experiments were approved by the governmental central committee on animal experiments (AVD5010020172064) and TNO’s animal welfare body (TNO-471 and TNO-482). Female APOE∗3-Leiden.CETP transgenic mice (11–16 weeks of age) were bred at the animal facility of TNO-InnoSer (Leiden, The Netherlands). Female animals were used in this study as they are more responsive to dietary cholesterol and fat than males and therefore typically develop atherosclerosis more rapidly than male APOE∗3-Leiden and APOE∗3-Leiden.CETP mice on cholesterol-containing diets ([33], [34]). Although measurements of atherosclerosis were not included as part of the present study, females were used with the prospect in mind that atherosclerosis studies will follow. The mice were housed under standard conditions that included 12 h light-dark cycles and access to a WTD and sterilized tap water ad libitum. Body weight, food intake, and clinical signs of behavior were monitored throughout the studies. […] Time t = 0 (weeks) was designated as the time at which mice were matched into groups after the 3-week run-in period in each efficacy study.
Treatment times were around 8:00 am and 4:00 pm each day. Throughout the in-life phase of the study, body weight and food intake (per cage) were measured at regular predetermined intervals while blood samples were collected every 7 days. The last gavage was administered on day 27. On day 28, the mice were sacrificed by CO2 asphyxiation, EDTA-plasma was obtained via heart puncture, and the liver was weighed and collected. Throughout the study, plasma cholesterol, triglycerides, HDL-C, lipoprotein profiles, PCSK9 expression levels, aspartate transaminase levels (AST), and alanine transaminase levels (ALT) were measured as described below.
(§4) In both studies, blood samples were collected at weekly intervals via tail vein sampling after fasting the mice for 4 h. Blood samples were centrifugated (4500 g at 4°C), and the plasma was collected for the following analyses. Total plasma cholesterol levels were determined using a Cholesterol CHOD-PAP kit according to the manufacturer’s instructions. Plasma HDL-C levels were determined by first precipitating apoB-containing lipids using PEG 6000/glycine and then utilizing the Cholesterol CHOD-PAP kit ([35]). Non-HDL-C levels were determined by subtracting HDL-C levels from total cholesterol levels ([32]). Group-pooled lipoprotein profiles were determined by FPLC analysis using an AKTApurifier 10 FPLC system (GE Healthcare, Chicago, IL). Plasma PCSK9 levels were determined using a Mouse PCSK9 Quantikine ELISA kit as per the manufacturer’s protocol. ALT and AST levels of group-pooled samples were measured using the Roche Reflotron Plus System (Mannheim, Germany).

[7] = test system: APOE∗3-Leiden.CETP mice; experiment: Second efficacy study: body weight, food intake, plasma ALT and AST; assay type: in vivo, mouse; parameters: Body weight (mean ± SD) / Food intake (mean ± SD): unit not given here; details: NYX-PCSK9i 50 mg/kg BID PO, atorvastatin […]; for Plasma ALT / Plasma AST: group-pooled
Text: as §3, §4

[8] = 30 mg/kg BID PO, day 0 (baseline)
[9] = 50 mg/kg BID PO, day 0 (baseline)

Cc1cn(-c2cc(CN3CCC[C@H](N)C3)cc(NC(=O)c3cc(-c4ccccc4)ccn3)c2)cn1 [NYX-PCSK9i]
share of fecal neutral sterols that was cholesterol ([1]; data not shown): more than 95%
cholesterol balance (dietary cholesterol intake minus fecal bile acids and neutral sterols) ([1]; final week of 35-day study): negative
increase in hepatic LDLR protein expression [2]: 45%
increase in hepatic LDLR protein levels ([3]; 30 mg/kg BID PO): 46%
increase in hepatic LDLR protein levels ([3]; 50 mg/kg BID PO): 51%
maximal increase in plasma PCSK9 protein levels [4]: 2 fold
elevation of total plasma PCSK9 levels [5]: approximately 2 fold
Body weight (mean ± SD) [6, 8]: 21.9 ± 1.3
Food intake (mean ± SD) [6, 8]: 3.3 ± 0.3
Body weight (mean ± SD) ([6]; 30 mg/kg BID PO, day 7): 22.0 ± 1.6
Food intake (mean ± SD) ([6]; 30 mg/kg BID PO, day 7): 2.7 ± 0.3
Food intake (mean ± SD) ([6]; 30 mg/kg BID PO, day 14): 2.6 ± 0.6
Food intake (mean ± SD) ([6]; 30 mg/kg BID PO, day 21): 2.4 ± 0.2
Body weight (mean ± SD) ([6]; 30 mg/kg BID PO, day 28): 22.0 ± 1.1
Food intake (mean ± SD) ([6]; 30 mg/kg BID PO, day 28): 3.0 ± 0.1
Food intake (mean ± SD) [6, 9]: 3.3 ± 0.3
Body weight (mean ± SD) ([6]; 50 mg/kg BID PO, day 7): 21.8 ± 1.3
Food intake (mean ± SD) ([6]; 50 mg/kg BID PO, day 7): 2.6 ± 0.0
Body weight (mean ± SD) ([6]; 50 mg/kg BID PO, day 14): 21.8 ± 1.1
Food intake (mean ± SD) ([6]; 50 mg/kg BID PO, day 14): 2.9 ± 0.0
Body weight (mean ± SD) ([6]; 50 mg/kg BID PO, day 21): 21.5 ± 1.4
Food intake (mean ± SD) ([6]; 50 mg/kg BID PO, day 21): 2.7 ± 0.0
Body weight (mean ± SD) ([6]; 50 mg/kg BID PO, day 28): 21.6 ± 1.1
Food intake (mean ± SD) ([6]; 50 mg/kg BID PO, day 28): 2.7 ± 0.1
plasma levels of the liver enzymes AST and ALT compared to vehicle ([6]; 30 and 50 mg/kg BID PO, 28 days): remained stable
Plasma ALT [6, 8]: 76.8 U/L
Plasma AST [6, 8]: 185.2 U/L
Plasma ALT ([6]; 30 mg/kg BID PO, day 7): 69.6 U/L
Plasma AST ([6]; 30 mg/kg BID PO, day 7): 175.2 U/L
Plasma ALT ([6]; 30 mg/kg BID PO, day 14): 70.0 U/L
Plasma AST ([6]; 30 mg/kg BID PO, day 14): 158.8 U/L
Plasma ALT ([6]; 30 mg/kg BID PO, day 21): 55.6 U/L
Plasma AST ([6]; 30 mg/kg BID PO, day 21): 156.8 U/L
Plasma ALT ([6]; 30 mg/kg BID PO, day 28): 35.6 U/L
Plasma AST ([6]; 30 mg/kg BID PO, day 28): 84 U/L
Plasma ALT [6, 9]: 70.0 U/L
Plasma AST [6, 9]: 170.8 U/L
Plasma ALT ([6]; 50 mg/kg BID PO, day 7): 74.8 U/L
Plasma AST ([6]; 50 mg/kg BID PO, day 7): 181.2 U/L
Plasma ALT ([6]; 50 mg/kg BID PO, day 14): 56 U/L
Plasma AST ([6]; 50 mg/kg BID PO, day 14): 147.6 U/L
Plasma ALT ([6]; 50 mg/kg BID PO, day 21): 47.6 U/L
Plasma AST ([6]; 50 mg/kg BID PO, day 21): 120.4 U/L
Plasma ALT ([6]; 50 mg/kg BID PO, day 28): 38 U/L
Plasma AST ([6]; 50 mg/kg BID PO, day 28): 107 U/L
Body weight (mean ± SD) ([7]; day 0 (baseline)): 21.9 ± 1.7
Food intake (mean ± SD) ([7]; day 0 (baseline)): 3.4 ± 0.3
Food intake (mean ± SD) ([7]; day 7): 3.5 ± 0.3
Body weight (mean ± SD) ([7]; day 14): 23.0 ± 2.4
Food intake (mean ± SD) ([7]; day 14): 3.4 ± 0.0
Body weight (mean ± SD) ([7]; day 21): 22.4 ± 2.0
Food intake (mean ± SD) ([7]; day 21): 2.7 ± 0.0
Body weight (mean ± SD) ([7]; day 28): 21.9 ± 2.1
Food intake (mean ± SD) ([7]; day 28): 2.7 ± 0.1
Food intake (mean ± SD) ([7]; day 35): 2.7 ± 0.3
Plasma ALT ([7]; day 0 (baseline)): 91 U/L
Plasma AST ([7]; day 0 (baseline)): 91 U/L
Plasma ALT ([7]; day 14): 84 U/L
Plasma AST ([7]; day 14): 84 U/L
Plasma ALT ([7]; day 28): 36 U/L
Plasma AST ([7]; day 28): 36 U/L
Plasma ALT ([7]; day 35): 42 U/L
Plasma AST ([7]; day 35): 42 U/L
